The test system of experiment [1] is JAK2 dependent human megakaryoblastic leukemia cell line SET-2. The experiment is described as follows: Cell proliferation assay (CellTiter-Glo, 72 hours). The experiment is classed as cell-based. To be noted: Homo sapiens, SET-2 cells. On the procedure:
The JAK2 dependent human megakaryoblastic leukemia cell line SET-2 (DSMZ, Braunschweig GERMANY) and the JAK2 independent human chronic myelogenous leukaemia cell line K562 (ECACC, Wiltshire, UK) were cultured in RPMI-1640 medium-Glutamax (Gibco BRL, Gaithesburg, Md., USA), supplemented with 10% fetal bovine serum (FBS) at 37° C. and 5% CO2.
Cell Proliferation Assay:
Approximately 5×10^3 cells were plated into 384 microtiter plate wells in 50 μL of growth media with different concentrations of inhibitors. The cells were incubated at 37° C. and 5% CO2 for 72 hours, then the plates were processed using CellTiter-Glo assay (Promega, Madison, Wis., USA) following the manufacturer's instruction. Briefly 25 μL/well reagent solution is added to each well and after 5 minutes shaking the micro-plates are read by Envision luminometer (PerkinElmer, Waltham, Mass., USA).
Data are analyzed by Symix Assay Explorer software (Symix Technologies Inc.) that provides sigmoidal fitting algorithm of the 8 points dilutions curves for IC50 determination.
On the technique in general: In ATP-based viability assays light output follows the ATP content of the culture.

A further experiment concerns the target T1, JAK2 kinase domain (Homo sapiens, UniProt O60674).
T1 construct: commercially available JAK2 kinase domain; purchased Invitrogen, Eugene, Oreg
The experiment is described as follows: Biochemical assay for inhibitors of JAK kinase activity (JAK2, 33P-γ-ATP/dowex resin). Conditions: JAK2 kinase domain 1 nM, 60 μM ATP. The source says:
Biochemical Assay for Inhibitors of JAK Kinase Activity
Specific JAK2, JAK1 or JAK3 peptide substrates are trans-phosphorylated by JAK kinases in the presence of ATP traced with 33P-γ-ATP. At the end of the phosphorylation reaction, the unreacted ATP, cold and radioactive, is captured by an excess of dowex ion exchange resin that eventually settles by gravity to the bottom of the reaction plate. The supernatant is subsequently withdrawn and transferred into a counting plate that is then evaluated by β-counting.
500 g of wet resin (SIGMA, custom prepared resin DOWEX 1×8 200-400 mesh, 2.5 Kg) are weighed out and diluted 2 to 1 in 150 mM sodium formate, pH 3.00. The resin is allowed to settle down overnight and then the supernatant is discarded. After three washes as above over a couple of days, the resin is allowed to settle and two volumes (with respect to the resin volume) of 150 mM sodium formate buffer are added.
Kinase buffer was composed of 50 mM HEPES pH 7.5 containing 10 mM MgCl2, 2.5 mM DTT, 10 μM Na3VO4 and 0.2 mg/mL BSA.
JAK2 Specific Assay Conditions
The JAK2 kinase assay was run with a final enzyme concentration of 1 nM, in the presence of 60 μM ATP, 3 nM 33P-γ-ATP and 64 μM of substrate BioDBn*306 (Aminoacid sequence: LPLDKDYYVVREPGQ—SEQ ID NO: 1). The peptidic substrate was purchased from American Peptide Company (Sunnyvale, Calif.).
For IC50 determination, test compounds are received as a 1 mM solution in 100% DMSO, distributed into 96 well plates: compounds are then plated into the first column of a microtiter plate (A1 to G1), 100 μL/well.
An automated station for serial dilutions (Biomek FX, Beckman) is used for producing 1:3 dilutions in 100% DMSO, from line A1 to A10, and for all the compounds in the column. Moreover, 4-5 copies of daughter plates are prepared by reformatting 5 μL of this first set of 100% DMSO dilution plates into 384 deep well-plates: one of these plates with the serial dilutions of test compounds will be thawed the day of the experiments, reconstituted at a 3× concentration with water and used in the IC50 determination assays. In a standard experiment, the highest concentration (3×) of all compounds is 30 μM, while the lowest one is 1.5 nM. Each 384 well-plate will contain at least one curve of the standard inhibitor staurosporine and reference wells (total enzyme activity vs. no enzymatic activity) for the Z′ and signal to background evaluation.
384-well plates, V bottom (test plates) are prepared with 5 μL of the compound dilution (3×) and then placed onto a PlateTrak 12 robotized station (Perkin Elmer; the robot has one 384-tip pipetting head for starting the assay plus one 96-tip head for dispensing the resin) together with one reservoir for the Enzyme mix (3×) and one for the ATP mix (3×). At the start of the run, the robot aspirates 5 μL of ATP mix, makes an air gap inside the tips (3 μl) and aspirates 5 μL of JAK2 mix. The following dispensation into the plates plus 3 cycles of mixing, done by the robot itself, starts the kinase reaction. At this point, the correct concentrations are restored for all the reagents. The robot incubates the plates for 60 minutes at room temperature, and then stops the reaction by pipetting 60 μL of dowex resin suspension into the reaction mix. In order to avoid tip clogging, wide bore tips are used to dispense the resin suspension. Three cycles of mixing are done immediately after the addition of the resin. Another mixing cycle is performed after all the plates are stopped, this time using normal tips: the plates are then allowed to rest for about one hour in order to allow resin sedimentation. At this point, 27 μL of the supernatant are transferred into 384-Optiplates (Perkin-Elmer), with 50 μL of Microscint 40 (Perkin-Elmer); after 5 min of orbital shaking the plates are read on a Perkin-Elmer Top Count radioactivity counter. […]

By IC50 is commonly meant the concentration needed to halve the response being measured. A higher IC50 goes with weaker potency in that assay.

T1 sequence (O60674 849-1124 limits assumed): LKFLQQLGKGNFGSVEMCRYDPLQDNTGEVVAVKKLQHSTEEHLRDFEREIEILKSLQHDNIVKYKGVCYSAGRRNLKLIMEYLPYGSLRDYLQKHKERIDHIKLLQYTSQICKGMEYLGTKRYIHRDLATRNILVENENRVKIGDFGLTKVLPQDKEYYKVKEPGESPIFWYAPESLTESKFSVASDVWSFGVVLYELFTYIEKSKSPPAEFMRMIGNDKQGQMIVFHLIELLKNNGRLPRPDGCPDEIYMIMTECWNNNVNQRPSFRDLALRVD

Turning to `Cc1ccc(Cl)cc1-c1[nH]c(-c2nc(N)ncc2C#Cc2ccccc2)cc1C(N)=O` [compound 1, 5-[2-Amino-5-(phenylethynyl)pyrimidin-4-yl]-2-(5-chloro-2-methylphenyl)-1H-pyrrole-3-carboxamide], the IC50 in experiment [1] is 300 nM; against JAK2 kinase domain, 2 nM.

As for `COc1ccccc1C#Cc1cnc(N)nc1-c1cc(C(N)=O)c(-c2cc(Cl)ccc2C)[nH]1` [compound 5, 5-{2-Amino-5-[(2-methoxyphenyl)ethynyl]pyrimidin-4-yl}-2-(5-chloro-2-methylphenyl)-1H-pyrrole-3-carboxamide], the figures for the half-inhibitory concentration (IC50) (in experiment [1]; at JAK2 kinase domain) were 750 nM and 5 nM, respectively.

Consider `Cc1ccc(Cl)cc1-c1[nH]c(-c2nc(N)ncc2C#Cc2cccc(NC3CCN(C)CC3)c2)cc1C(N)=O` [compound 12, 5-[2-Amino-5-({3-[(1-methylpiperidin-4-yl)amino]phenyl}ethynyl)pyrimidin-4-yl]-2-(5-chloro-2-methylphenyl)-1H-pyrrole-3-carboxamide], for which the half-inhibitory concentration (IC50) in experiment [1] came to 500 nM; against JAK2 kinase domain, 1 nM.

Regarding `Cc1ccc(Cl)cc1-c1[nH]c(-c2nc(N)ncc2C#Cc2ccc(N3CCC(N4CCCC4)CC3)cc2)cc1C(N)=O` [compound 26, 5-[2-Amino-5-({4-[4-(pyrrolidin-1-yl)piperidin-1-yl]phenyl}ethynyl)pyrimidin-4-yl]-2-(5-chloro-2-methylphenyl)-1H-pyrrole-3-carboxamide], the IC50 in experiment [1] was found to be 290 nM; against JAK2 kinase domain it was 1 nM.

For the molecule `Cc1ccc(Cl)cc1-c1[nH]c(-c2nc(N)ncc2C#Cc2ccc(N3CCC[C@H]3CN3CCCC3)cc2)cc1C(N)=O` [compound 31, 5-[2-Amino-5-({4-[(2S)-2-(pyrrolidin-1-ylmethyl)pyrrolidin-1-yl]phenyl}ethynyl)pyrimidin-4-yl]-2-(5-chloro-2-methylphenyl)-1H-pyrrole-3-carboxamide], the IC50 in experiment [1] was 310 nM; against JAK2 kinase domain, 1 nM.

Consider `Cc1ccc(Cl)cc1-c1[nH]c(-c2nc(N)ncc2C#CC2CC2)cc1C(N)=O` [compound 38, 5-[2-Amino-5-(cyclopropylethynyl)pyrimidin-4-yl]-2-(5-chloro-2-methylphenyl)-1H-pyrrole-3-carboxamide], for which the half-inhibitory concentration (IC50) in experiment [1] worked out at 570 nM; at JAK2 kinase domain it was 2 nM.

Regarding `Cc1ccc(Cl)cc1-c1[nH]c(-c2nc(N)ncc2C#Cc2ccc(Br)cc2)cc1C(N)=O` [compound 40, 5-{2-Amino-5-[(4-bromophenyl)ethynyl]pyrimidin-4-yl}-2-(5-chloro-2-methylphenyl)-1H-pyrrole-3-carboxamide], the IC50 in experiment [1] worked out at 2480 nM; against JAK2 kinase domain, 85 nM.

Regarding `Cc1ccc(Cl)cc1-c1[nH]c(-c2nc(N)ncc2C#Cc2ccccc2NCCO)cc1C(N)=O` [compound 43, 5-[2-Amino-5-({2-[(2-hydroxyethyl)amino]phenyl}ethynyl)pyrimidin-4-yl]-2-(5-chloro-2-methylphenyl)-1H-pyrrole-3-carboxamide], the results for the IC50 (in experiment [1]; at JAK2 kinase domain) were 960 nM and 13 nM, respectively.

On to `Cc1ccc(Cl)cc1-c1[nH]c(-c2nc(N)ncc2C#CCN(C)C)cc1C(N)=O` [compound 44, 5-{2-Amino-5-[3-(dimethylamino)prop-1-yn-1-yl]pyrimidin-4-yl}-2-(5-chloro-2-methylphenyl)-1H-pyrrole-3-carboxamide], for which the IC50 in experiment [1] turned out to be 460 nM; at JAK2 kinase domain, 11 nM.

In the case of `Cc1ccc(Cl)cc1-c1[nH]c(-c2nc(N)ncc2C#Cc2ccccc2NCCN(C)C)cc1C(N)=O` [compound 45, 5-{2-Amino-5-[(2-{[2-(dimethylamino)ethyl]amino}phenyl)ethynyl]pyrimidin-4-yl}-2-(5-chloro-2-methylphenyl)-1H-pyrrole-3-carboxamide], the values for the IC50 (in experiment [1]; against JAK2 kinase domain) were 560 nM and 10 nM, respectively.

For the molecule `Cc1ccc(Cl)cc1-c1[nH]c(-c2nc(N)ncc2C#Cc2cccnc2)cc1C(N)=O` [compound 53, 5-[2-Amino-5-(pyridin-3-ylethynyl)pyrimidin-4-yl]-2-(5-chloro-2-methylphenyl)-1H-pyrrole-3-carboxamide], the values for the 50% inhibitory concentration (IC50) (in experiment [1]; against JAK2 kinase domain) were 110 nM and 2 nM, respectively.

Take `Cc1ccc(Cl)cc1-c1[nH]c(-c2nc(N)ncc2C#CC(C)(C)O)cc1C(N)=O` [compound 54, 5-[2-Amino-5-(3-hydroxy-3-methylbut-1-yn-1-yl)pyrimidin-4-yl]-2-(5-chloro-2-methylphenyl)-1H-pyrrole-3-carboxamide]: the IC50 in experiment [1] was 780 nM; at JAK2 kinase domain, 16 nM.

In the case of `Cc1ccc(Cl)cc1-c1[nH]c(-c2nc(N)ncc2C#Cc2ccc(CN3CCN(C)CC3)cc2)cc1C(N)=O` [compound 65, 5-[2-Amino-5-({4-[(4-methylpiperazin-1-yl)methyl]phenyl}ethynyl)pyrimidin-4-yl]-2-(5-chloro-2-methylphenyl)-1H-pyrrole-3-carboxamide], the results for the IC50 (in experiment [1]; on JAK2 kinase domain) were 80 nM and 1 nM, respectively.

On to `Cc1ccc(Cl)cc1-c1[nH]c(-c2ccnc(N)n2)c(C#Cc2cccc(NC3CCN(C)CC3)c2)c1C(N)=O` [compound 80, 5-(2-Aminopyrimidin-4-yl)-2-(5-chloro-2-methylphenyl)-4-({3-[(1-methylpiperidin-4-yl)amino]phenyl}ethynyl)-1H-pyrrole-3-carboxamide], for which the IC50 in experiment [1] was found to be 780 nM; against JAK2 kinase domain, 6 nM.

The record behind these values is patent US8912200B2, “Alkynyl substituted pyrimidinyl-pyrroles active as kinases inhibitors” (Nerviano Medical Sciences S.R.L., priority 2011, dated 2014).
